Assay results from PubChem BioAssay AID1919002 (Molecular Pharmacology Branch, DTP, NCI, 2023).

Test system: 743489-274-T-PDC complex spheroid growth
Assay: Anticancer human tumor 743489-274-T-PDC patient-derived renal cell carcinoma cell line growth inhibition [AhR]
Conditions: for IC50: curve of first compound; for viability, T/C: stronger effect = lower value
Outline: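 Complex tumor spheroids co-cultured with HUVEC and human MSC stroma; AhR antagonists tested in combination with standard-of-care and investigational agents. Top concentration at or near clinical Cmax (else 10 microM), half-log dilutions; growth expressed as percent test/control.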

[1] = second compound 0.1 µM, first compound 0.000949 µM
[2] = second compound 0.1 µM, first compound 0.003 µM
[3] = second compound 0.1 µM, first compound 0.00949 µM
[4] = second compound 0.1 µM, first compound 0.03 µM
[5] = second compound 0.1 µM, first compound 0.0949 µM
[6] = second compound 0.1 µM, first compound 0.3 µM
[7] = second compound 0.316 µM, first compound 0.000949 µM
[8] = second compound 0.316 µM, first compound 0.003 µM
[9] = second compound 0.316 µM, first compound 0.00949 µM
[10] = second compound 0.316 µM, first compound 0.03 µM
[11] = second compound 0.316 µM, first compound 0.0949 µM
[12] = second compound 0.316 µM, first compound 0.3 µM
[13] = second compound 1 µM, first compound 0.000949 µM
[14] = second compound 1 µM, first compound 0.003 µM
[15] = second compound 1 µM, first compound 0.00949 µM
[16] = second compound 1 µM, first compound 0.03 µM
[17] = second compound 1 µM, first compound 0.0949 µM
[18] = second compound 1 µM, first compound 0.3 µM
[19] = second compound 3.16 µM, first compound 0.000949 µM
[20] = second compound 3.16 µM, first compound 0.003 µM
[21] = second compound 3.16 µM, first compound 0.00949 µM
[22] = second compound 3.16 µM, first compound 0.03 µM
[23] = second compound 3.16 µM, first compound 0.0949 µM
[24] = second compound 3.16 µM, first compound 0.3 µM
[25] = second compound 10 µM, first compound 0.000949 µM
[26] = second compound 10 µM, first compound 0.003 µM
[27] = second compound 10 µM, first compound 0.00949 µM
[28] = second compound 10 µM, first compound 0.03 µM
[29] = second compound 10 µM, first compound 0.0949 µM
[30] = second compound 10 µM, first compound 0.3 µM
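Further: spheroids exposed to agents for 7 days before readout.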
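Wherever viability, T/C is given: 100% = DMSO vehicle control wells.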

`CC(C)CC(NC(=O)C(Cc1ccccc1)NC(=O)c1cnccn1)B(O)O` (stereo not given) + Cc1ccccc1N=Nc1ccc(NC(=O)c2ccnn2C)c(C)c1 was tested, and the IC50 (second compound 0.1 µM) was 0.0218 µM, the IC50 (second compound 0.316 µM) was 0.0248 µM and the IC50 (second compound 1 µM) was 0.0282 µM. The IC50 (second compound 3.16 µM) was 0.0222 µM, the IC50 (second compound 10 µM) was 0.0212 µM and the viability, T/C [1] was 99.1%. The viability, T/C [2] was 115%, the viability, T/C [3] was 97.4% and the viability, T/C [4] was 31.5%. For the same compound, the viability, T/C [5] was 13.8%, the viability, T/C [6] was 4.06% and the viability, T/C [7] was 83.8%. It also gave a viability, T/C [8] of 98.5%, a viability, T/C [9] of 100% and a viability, T/C [10] of 41.1%. It also gave a viability, T/C [11] of 16.2%, a viability, T/C [12] of 2.22% and a viability, T/C [13] of 88.9%. It also gave a viability, T/C [14] of 111%, a viability, T/C [15] of 113% and a viability, T/C [16] of 46.9%. The viability, T/C [17] was 15.2%, the viability, T/C [18] was 5% and the viability, T/C [19] was 89.1%. The viability, T/C [20] was 94.8%, the viability, T/C [21] was 94.2% and the viability, T/C [22] was 34.9%. For the same compound, the viability, T/C [23] was 17.3%, the viability, T/C [24] was 2.43% and the viability, T/C [25] was 77.4%. It also gave a viability, T/C [26] of 97.6%, a viability, T/C [27] of 89.4% and a viability, T/C [28] of 33.6%. For the same compound, the viability, T/C [29] was 10.4% and the viability, T/C [30] was 4.58%.

`CCc1c2c(nc3ccc(O)cc13)-c1cc3c(c(=O)n1C2)COC(=O)[C@]3(O)CC` + Cc1ccccc1N=Nc1ccc(NC(=O)c2ccnn2C)c(C)c1 showed an IC50 (second compound 0.1 µM) of over 0.3 µM, an IC50 (second compound 0.316 µM) of over 0.3 µM and an IC50 (second compound 1 µM) of 0.238 µM. The IC50 (second compound 3.16 µM) was over 0.3 µM, the IC50 (second compound 10 µM) was 0.0862 µM and the viability, T/C [1] was 79.7%. For the same compound, the viability, T/C [2] was 94.1%, the viability, T/C [3] was 89.5% and the viability, T/C [4] was 76.1%. It also gave a viability, T/C [5] of 59.2%, a viability, T/C [6] of 55.1% and a viability, T/C [7] of 83.4%. It also gave a viability, T/C [8] of 89.2%, a viability, T/C [9] of 94.8% and a viability, T/C [10] of 71.2%. It also gave a viability, T/C [11] of 54.9%, a viability, T/C [12] of 50% and a viability, T/C [13] of 90.2%. For the same compound, the viability, T/C [14] was 93.2%, the viability, T/C [15] was 79.6% and the viability, T/C [16] was 72.1%. It also gave a viability, T/C [17] of 60%, a viability, T/C [18] of 47.3% and a viability, T/C [19] of 85.1%. It also gave a viability, T/C [20] of 88.9%, a viability, T/C [21] of 80.7% and a viability, T/C [22] of 62.8%. It also gave a viability, T/C [23] of 57.8%, a viability, T/C [24] of 50.2% and a viability, T/C [25] of 85.4%. The viability, T/C [26] was 84.7%, the viability, T/C [27] was 76.8% and the viability, T/C [28] was 60%. It also gave a viability, T/C [29] of 50.2% and a viability, T/C [30] of 44.7%.

Work on `COc1cc(Nc2ncc3c(n2)-c2ccc(Cl)cc2C(c2c(F)cccc2OC)=NC3)ccc1C(=O)O` + Cc1ccccc1N=Nc1ccc(NC(=O)c2ccnn2C)c(C)c1 yielded an IC50 (second compound 0.1 µM) of over 10 µM, an IC50 (second compound 0.316 µM) of over 10 µM and an IC50 (second compound 1 µM) of over 10 µM. For the same compound, the IC50 (second compound 3.16 µM) was over 10 µM, the IC50 (second compound 10 µM) was over 10 µM and the viability, T/C (second compound 0.1 µM, first compound 0.0316 µM) was 93.3%. It also gave a viability, T/C (second compound 0.1 µM, first compound 0.1 µM) of 93%, a viability, T/C (second compound 0.1 µM, first compound 0.316 µM) of 86.6% and a viability, T/C (second compound 0.1 µM, first compound 1 µM) of 87.5%. It also gave a viability, T/C (second compound 0.1 µM, first compound 3.16 µM) of 95.4%, a viability, T/C (second compound 0.1 µM, first compound 10 µM) of 79.8% and a viability, T/C (second compound 0.316 µM, first compound 0.0316 µM) of 91.4%. The viability, T/C (second compound 0.316 µM, first compound 0.1 µM) was 88.1%, the viability, T/C (second compound 0.316 µM, first compound 0.316 µM) was 79.9% and the viability, T/C (second compound 0.316 µM, first compound 1 µM) was 77.2%. It also gave a viability, T/C (second compound 0.316 µM, first compound 3.16 µM) of 87.1%, a viability, T/C (second compound 0.316 µM, first compound 10 µM) of 90% and a viability, T/C (second compound 1 µM, first compound 0.0316 µM) of 93%. For the same compound, the viability, T/C (second compound 1 µM, first compound 0.1 µM) was 98%, the viability, T/C (second compound 1 µM, first compound 0.316 µM) was 75.5% and the viability, T/C (second compound 1 µM, first compound 1 µM) was 77%. The viability, T/C (second compound 1 µM, first compound 3.16 µM) was 83.4%, the viability, T/C (second compound 1 µM, first compound 10 µM) was 81.5% and the viability, T/C (second compound 3.16 µM, first compound 0.0316 µM) was 80.4%. For the same compound, the viability, T/C (second compound 3.16 µM, first compound 0.1 µM) was 94.2%, the viability, T/C (second compound 3.16 µM, first compound 0.316 µM) was 70.5% and the viability, T/C (second compound 3.16 µM, first compound 1 µM) was 78.4%. It also gave a viability, T/C (second compound 3.16 µM, first compound 3.16 µM) of 75.2%, a viability, T/C (second compound 3.16 µM, first compound 10 µM) of 82% and a viability, T/C (second compound 10 µM, first compound 0.0316 µM) of 76.8%. For the same compound, the viability, T/C (second compound 10 µM, first compound 0.1 µM) was 81.2%, the viability, T/C (second compound 10 µM, first compound 0.316 µM) was 76.2% and the viability, T/C (second compound 10 µM, first compound 1 µM) was 74.3%. For the same compound, the viability, T/C (second compound 10 µM, first compound 3.16 µM) was 65.8% and the viability, T/C (second compound 10 µM, first compound 10 µM) was 78.7%.
